Experimental data as given in publication PMC11258351, “PK/PD investigation of antiviral host matriptase/TMPRSS2 inhibitors in cell models” (Scientific Reports, 2024).
“And” between values parts separate entries of the source, which are not always exact repeats. Equal values may be shown once. “Also recorded” adds a separate entry of the source. Read-outs that look alike come from different tables or passages of the source.

Tests used:
[1] = Prediction of in vivo human PK parameters from hepatocyte clearance; assay type: in vitro ADME; details: for Classification (extraction type) / Extraction ratio EH: predicted; for Predicted Cl, CLH: predicted from hepatocyte Clint, fu = 1
[2] = test system: cynomolgus monkey hepatocytes; design: method as in PMID 31391268; details: cited from earlier work
H9N2 = details: MDCK-II cells, 20 μM and 50 μM; cited from earlier work
CYP1A2 [3] = target: T1, CYP1A2 (Homo sapiens, UniProt P05177); test: Fluorometric CYP1A2 activity assay in human hepatic microsomes; details: human liver microsomes, protease inhibitors at 50 µM, 15 min 37 °C
T1 sequence (P05177 1-516): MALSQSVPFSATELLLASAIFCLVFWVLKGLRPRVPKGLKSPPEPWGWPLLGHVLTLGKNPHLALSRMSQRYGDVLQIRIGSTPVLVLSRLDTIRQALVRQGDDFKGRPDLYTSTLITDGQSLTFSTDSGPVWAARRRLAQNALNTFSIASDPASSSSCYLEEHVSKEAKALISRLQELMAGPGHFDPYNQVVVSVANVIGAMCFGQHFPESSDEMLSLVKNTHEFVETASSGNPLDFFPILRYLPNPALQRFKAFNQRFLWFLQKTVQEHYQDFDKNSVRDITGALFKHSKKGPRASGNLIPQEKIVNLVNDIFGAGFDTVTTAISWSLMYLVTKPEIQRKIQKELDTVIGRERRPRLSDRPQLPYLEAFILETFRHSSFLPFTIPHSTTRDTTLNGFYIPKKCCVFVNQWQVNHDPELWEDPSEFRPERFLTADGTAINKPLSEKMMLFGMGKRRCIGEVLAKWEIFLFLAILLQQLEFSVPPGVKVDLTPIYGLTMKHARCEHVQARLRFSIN

CYP2C9 [4] = target: T2, CYP2C9 (Homo sapiens, UniProt P11712); test: Fluorometric CYP2C9 activity assay in human hepatic microsomes; details: human liver microsomes, protease inhibitors at 50 µM, 15 min 37 °C
CYP2D6 [5] = target: T3, CYP2D6 (Homo sapiens, UniProt P10635); test: Fluorometric CYP2D6 activity assay in human hepatic microsomes; details: human liver microsomes; for Inhibition of CYP2D6 activity: protease inhibitors at 50 µM, 15 min 37 °C
CYP3A4 [6] = target: T4, CYP3A4 (Homo sapiens, UniProt P08684); test: Fluorometric CYP3A4 activity assay in human hepatic microsomes; details: for Effect on CYP3A4 enzyme activity: human liver microsomes, 10, 25 and 50 µM; for Effect on CYP3A4 enzyme activity at the lowest applied concentration: human liver microsomes, lowest applied concentration (10 µM)
CYP2C19 [7] = target: T5, CYP2C19 (Homo sapiens, UniProt P33261); test: Fluorometric CYP2C19 activity assay in human hepatic microsomes; details: human liver microsomes, protease inhibitors at 50 µM, 15 min 37 °C
[8] = Depletion of inhibitors in human primary hepatocyte suspension (LC-MS/MS); details: human, cryopreserved primary human hepatocytes in suspension; for CLint scaled at 10 µM: intrinsic clearance from primary human hepatocytes scaled to whole liver/body weight
[9] = test system: human primary hepatocytes; test: as above; details: for Parent compound retained at the 120-min sampling point / Sampling interval at which significant depletion was first observed: primary human hepatocytes, 10 µM; for Parent compound retained at the 120-min sampling point: % of 0-min concentration, mean ± S.E.M.; for Sampling interval at which significant depletion was first observed: sampling 0-120 min
[10] = test system: H9N2 IAV strain A/quail/Shantou/782/00; assay type: cell-based, influenza A virus; details: MDCK-II cells, 24 h
A/Hamburg/5/09 (H1N1pdm) = assay type: cell-based, influenza A virus
[11] = test system: primary human hepatocytes; test: Cytotoxicity in primary human hepatocytes; assay type: cell-based; details: 50 µM, 24 h
Procedure: Supplementary Figure S1. Cytotoxicity of MI-463 and MI-1900 at 50 µM for 24 h in primary human hepatocytes. DMSO was applied as solvent control at 0.5% for 24 h.

CYP1A2 [12] = target: T1, CYP1A2; design: method as in PMID 34915414; details: earlier study; cited from earlier work
CYP2C9 [13] = target: T2, CYP2C9; design: method as in PMID 34915414; details: earlier study; cited from earlier work
CYP2C19 [14] = target: T5, CYP2C19; design: method as in PMID 34915414; details: earlier study; cited from earlier work
CYP2D6 [15] = target: T3, CYP2D6; design: method as in PMID 34915414; details: earlier study; cited from earlier work
CYP3A4 [16] = target: T4, CYP3A4; design: method as in PMID 34915414; details: fluorometric assays, earlier study; cited from earlier work
matriptase = target: matriptase; design: method as in PMID 35635944; details: cited from earlier work
TMPRSS2 = target: TMPRSS2; design: method as in PMID 35635944; details: cited from earlier work
SARS-CoV-2 = test system: SARS-CoV-2; design: method as in PMID 32703818; details: Calu-3 cells, 50 μM, 24 h p.i.; cited from earlier work
Calu-3 cells = test system: Calu-3 cells; design: method as in PMID 32703818; details: 50 μM; cited from earlier work
monkey CYP1A2 = test system: monkey CYP1A2; design: method as in PMID 35448654; details: cited from earlier work
rat CYP1A2 = test system: rat CYP1A2; design: method as in PMID 35448654; details: cited from earlier work
beagle dog CYP1A2 = test system: beagle dog CYP1A2; design: method as in PMID 35448654; details: cited from earlier work
[17] = test system: H9N2 IAV strain A/quail/Shantou/782/00; assay type: cell-based, influenza A virus; details: MDCK-II cells

T5 sequence (P33261 whole entry): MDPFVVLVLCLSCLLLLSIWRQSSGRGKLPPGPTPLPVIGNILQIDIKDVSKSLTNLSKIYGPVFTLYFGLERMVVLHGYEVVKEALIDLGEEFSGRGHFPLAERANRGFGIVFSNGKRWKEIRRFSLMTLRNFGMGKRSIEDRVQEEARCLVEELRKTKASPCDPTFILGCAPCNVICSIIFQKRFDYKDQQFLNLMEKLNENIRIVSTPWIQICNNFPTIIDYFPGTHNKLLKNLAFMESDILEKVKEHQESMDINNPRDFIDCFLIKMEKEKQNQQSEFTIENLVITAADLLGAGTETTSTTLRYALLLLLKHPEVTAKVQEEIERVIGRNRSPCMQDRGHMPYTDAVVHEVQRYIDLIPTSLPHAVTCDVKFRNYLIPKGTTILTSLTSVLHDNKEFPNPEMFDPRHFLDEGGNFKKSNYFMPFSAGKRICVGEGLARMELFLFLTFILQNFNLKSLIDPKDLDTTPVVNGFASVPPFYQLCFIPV
T4 sequence (P08684 whole entry): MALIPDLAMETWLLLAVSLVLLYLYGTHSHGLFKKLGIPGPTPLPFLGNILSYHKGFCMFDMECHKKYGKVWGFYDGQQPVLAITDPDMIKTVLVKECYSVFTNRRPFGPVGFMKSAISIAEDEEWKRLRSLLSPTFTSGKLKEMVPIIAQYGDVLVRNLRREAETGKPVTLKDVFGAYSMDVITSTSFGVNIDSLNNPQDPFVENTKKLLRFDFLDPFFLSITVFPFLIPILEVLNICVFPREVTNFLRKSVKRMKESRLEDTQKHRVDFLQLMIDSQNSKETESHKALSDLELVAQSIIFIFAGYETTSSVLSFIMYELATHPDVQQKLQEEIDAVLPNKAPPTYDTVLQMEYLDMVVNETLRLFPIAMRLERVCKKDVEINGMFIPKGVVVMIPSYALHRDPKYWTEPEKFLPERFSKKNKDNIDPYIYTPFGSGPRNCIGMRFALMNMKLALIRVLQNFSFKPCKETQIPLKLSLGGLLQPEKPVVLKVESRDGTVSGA
T3 sequence (P10635 whole entry): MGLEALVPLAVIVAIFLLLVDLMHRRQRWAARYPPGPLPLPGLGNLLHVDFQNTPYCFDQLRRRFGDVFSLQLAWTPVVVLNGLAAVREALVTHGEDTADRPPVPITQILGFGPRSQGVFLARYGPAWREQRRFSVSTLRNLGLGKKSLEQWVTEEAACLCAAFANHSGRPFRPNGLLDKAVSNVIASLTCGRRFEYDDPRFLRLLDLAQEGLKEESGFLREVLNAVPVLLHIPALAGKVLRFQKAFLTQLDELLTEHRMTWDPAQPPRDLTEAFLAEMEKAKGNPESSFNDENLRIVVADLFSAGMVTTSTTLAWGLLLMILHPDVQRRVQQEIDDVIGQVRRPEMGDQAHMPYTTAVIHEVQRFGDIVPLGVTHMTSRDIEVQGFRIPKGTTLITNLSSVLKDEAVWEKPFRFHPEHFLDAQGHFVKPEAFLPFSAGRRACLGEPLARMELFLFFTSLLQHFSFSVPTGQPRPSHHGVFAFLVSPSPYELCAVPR
T2 sequence (P11712 whole entry): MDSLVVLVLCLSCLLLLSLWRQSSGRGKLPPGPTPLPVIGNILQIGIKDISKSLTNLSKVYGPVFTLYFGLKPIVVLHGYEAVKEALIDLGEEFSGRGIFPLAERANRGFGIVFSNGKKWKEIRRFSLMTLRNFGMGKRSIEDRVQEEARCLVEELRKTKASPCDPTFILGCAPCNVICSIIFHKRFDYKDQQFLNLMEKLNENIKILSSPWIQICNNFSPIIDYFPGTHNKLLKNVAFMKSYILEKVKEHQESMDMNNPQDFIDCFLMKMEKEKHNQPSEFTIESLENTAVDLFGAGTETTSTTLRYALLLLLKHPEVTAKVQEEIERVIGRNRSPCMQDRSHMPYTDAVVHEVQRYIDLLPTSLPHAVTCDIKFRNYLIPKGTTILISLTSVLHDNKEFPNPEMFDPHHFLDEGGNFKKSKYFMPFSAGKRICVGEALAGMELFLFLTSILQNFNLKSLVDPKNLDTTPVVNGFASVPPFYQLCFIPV

SMILES	Classification (extraction type) [1]	Extraction ratio EH [1]	Predicted Cl, CLH [1]	Treatment time after which significant conversion was seen [2] [min]	Effect on H9N2 virus propagation (H9N2)	Inhibition of CYP1A2 activity (CYP1A2 [3])	Inhibition of CYP2C9 activity (CYP2C9 [4])	Inhibition of CYP2D6 activity (CYP2D6 [5])	Effect on CYP3A4 enzyme activity (CYP3A4 [6])	Effect on CYP3A4 enzyme activity at the lowest applied concentration (CYP3A4 [6])	Inhibition of CYP2C19 activity (CYP2C19 [7])	half-life at 10 µM [8] [h]	CLint scaled at 10 µM [8] [mL/min/kg]	Parent compound retained at the 120-min sampling point [9]	Sampling interval at which significant depletion was first observed [9] [min]	H9N2 viral spread / formation of viral foci ([10]; MOI 0.01, 50 µM)	Cytotoxicity in primary human hepatocytes [11]	Inhibition of CYP1A2 activity (CYP1A2 [12])	Inhibition of CYP2C9 activity (CYP2C9 [13])	Inhibition of CYP2C19 activity (CYP2C19 [14])	further results
COc1ccc(-c2cccc(S(=O)(=O)N[C@@H](Cc3cccc(C(=N)N)c3)C(=O)N3CCC(NC(=O)NC(C)(C)C)CC3)c2)c(OC)c1 [MI-485]	Intermediate	0.39	8.17	60 to 120	most pronounced reduction	No significant CYP inhibitory potential	No significant CYP inhibitory potential	No significant CYP inhibitory potential	significant inhibitory effect	potent inhibitors	No significant CYP inhibitory potential	2.86	26.6	64.9 ± 5.3%	30	–	–	–	–	–	–
C=C[C@H]1C[N@@]2CC[C@H]1C[C@@H]2[C@@H](O)c1ccnc2ccc(OC)cc12 [quinidine, reference compound]	–	–	–	–	–	–	–	–	–	–	–	–	–	–	–	–	–	–	–	–	Inhibition of CYP2D6 activity by reference inhibitor (CYP2D6 [5]; 3 µM, p < 0.001): significantly suppressed
COc1ccc(-c2cccc(S(=O)(=O)N[C@@H](Cc3cccc(C(=N)N)c3)C(=O)N3CCN(C(=O)NC4CCCCC4)CC3)c2)c(OC)c1 [MI-1900]	Intermediate	0.45	9.23	60 to 120	strongly inhibiting its replication	–	–	–	–	–	–	1.8	42.3	48.6 ± 1.5%	30	strong suppression of viral spread	No significant differences in cell viabilities; also recorded: lack of cytotoxicity	No significant CYP inhibitory potential	No significant CYP inhibitory potential	No significant CYP inhibitory potential	Reduction of H1N1 titers (A/Hamburg/5/09 (H1N1pdm)): 1.62 logs; Inhibition of CYP2D6 activity (CYP2D6 [15]): No significant CYP inhibitory potential; Inhibition of CYP3A4 activity (CYP3A4 [16]): substantial inhibitory effects; Ki (matriptase): 38 nM; Ki (TMPRSS2): 79 nM; Reduction of SARS-CoV-2 viral titers compared to control samples (SARS-CoV-2): 35 to 280 fold; Influence on Calu-3 cell viability (Calu-3 cells): without influencing Calu-3 cell viabilitiy significantly; Inhibition of monkey CYP1A2 (monkey CYP1A2): significant inhibition; Inhibition of rat CYP1A2 (rat CYP1A2): significant inhibition; Inhibition of beagle dog CYP1A2 (beagle dog CYP1A2): no significant inhibition
CC(C)(C)NC(=O)NC1CCN(C(=O)[C@H](Cc2cccc(C(=N)N)c2)NS(=O)(=O)c2cccc(-c3ccc(CO)cc3)c2)CC1 [MI-1903]	Intermediate	0.51	10.56	–	–	No significant CYP inhibitory potential	No significant CYP inhibitory potential	No significant CYP inhibitory potential	significant inhibitory effect	–	No significant CYP inhibitory potential	0.753	101	38.6 ± 5.5%	30	only slightly reduced formation of viral foci	–	–	–	–	CLint ([9]; intrinsic clearance from primary human hepatocytes scaled to whole liver/body weight): 101.03 mL/min/kg
COc1ccc(-c2cccc(S(=O)(=O)N[C@@H](Cc3cccc(C(=N)N)c3)C(=O)N3CCC(NC(=O)NC4CCCCC4)CC3)c2)c(OC)c1 [MI-463]	Intermediate	0.37	7.60	60 to 120	–	–	–	–	significant inhibitory effect	potent inhibitors	–	3.57	21.3	66.7 ± 5.5% and 66.7%	30	fully prevented formation of viral foci; also recorded: fully preventing the formation of H9N2 viral foci	No significant differences in cell viabilities; also recorded: lack of cytotoxicity	No significant CYP inhibitory potential	No significant CYP inhibitory potential	No significant CYP inhibitory potential	H9N2 viral spread / formation of viral foci ([10]; MOI 0.01, 20 µM): marked reduction of viral spread; Reduction of H9N2 viral titers compared to untreated controls ([17]; 20 µM, 24 h): approximately 1.4 log; Reduction of H9N2 viral titers compared to untreated controls ([17]; 20 µM, 48 h): 2.1 logs; Reduction of H9N2 viral titers compared to untreated controls ([17]; 50 µM, 24 h): ~1.8 log; Reduction of H9N2 viral titers compared to untreated controls ([17]; 50 µM, 48 h): 2.6 logs; Reduction of H1N1 viral titers (A/Hamburg/5/09 (H1N1pdm)): 0.95–1.34 logs; Inhibition of CYP2D6 activity (CYP2D6 [15]): No significant CYP inhibitory potential; Ki (matriptase): 4 nM; Ki (TMPRSS2): 3 nM; Inhibition of monkey CYP1A2 (monkey CYP1A2): significant inhibition; Inhibition of rat CYP1A2 (rat CYP1A2): significant inhibition; Inhibition of beagle dog CYP1A2 (beagle dog CYP1A2): no significant inhibition
CC(C)(C)NC(=O)NC1CCN(C(=O)[C@H](Cc2cccc(C(=N)N)c2)NS(=O)(=O)c2cccc(-c3ccc(CO)c(F)c3)c2)CC1 [MI-1904]	Intermediate	0.35	7.29	–	most pronounced reduction	No significant CYP inhibitory potential	No significant CYP inhibitory potential	No significant CYP inhibitory potential	significant inhibitory effect	–	No significant CYP inhibitory potential	3.99	19.1	70.8 ± 8.6%	120	–	–	–	–	–	–
